Laboratory results from patent US5585353A, “Antibiotic peptides containing D-amino acids” (The Rockefeller University, priority 1994, dated 1996).
Read-outs that look alike come from different tables or passages of the source. No end group written: not given here.

Tests used:
[1] = system: E. coli D21; experiment: inhibition zone assay, lethal concentration; format: cell-based; settings: E. coli D21, thin agarose plates
Procedure: (§1) Thin agar or agarose plates (8.5 cm diameter) were prepared with 6 ml of rich medium containing 100 ug/ml of streptomycin and 2×10^5 viable cells of a test organism resistant to streptomycin. Wells of 3.5 mm diameter were punched in the plates and 3 ul of serially diluted samples were placed in the wells. The diameters of the zones of inhibition around the wells were measured after overnight incubation at 30° or 37° C. For each peptide the squares of the zone diameters were plotted against the logarithm of the concentration, and from the slopes and intercepts the lethal concentrations were calculated as described by Hultmark (1983) EMBO J. 2, 571-76 or Hultmark et al (1982) Eur. J. Biochem. 127 207-217 each of which being incorporated herein by reference.
(§2) Lethal Concentrations calculated from inhibition zones on thin agarose
(§3) plates seeded with the respective organisms. D21: E. coli; OT97: P.

[2] = system: P. aeruginosa OT97; experiment: inhibition zone assay, lethal concentration; format: cell-based; settings: P. aeruginosa OT97, thin agarose plates
Procedure: as §1, §2, §3
(§4) aeruginosa; Bs11: B. subtilis; +ME: plates prepared with medium E; Staph: […]

[3] = system: B. subtilis Bs11; experiment: inhibition zone assay, lethal concentration; format: cell-based
Procedure: as §1, §2, §4

[4] = system: S. aureus Cowan 1; experiment: inhibition zone assay, lethal concentration; format: cell-based; settings: S. aureus Cowan 1, thin agarose plates
Procedure: as §1, §2
aeruginosa; Bs11: B. subtilis; +ME: plates prepared with medium E; Staph:
(§5) S. aureus Cowan 1; Strep: S. pyogenes; SRC: Sheep red cells.; *all amino

[5] = system: S. pyogenes; experiment: inhibition zone assay, lethal concentration; format: cell-based; settings: thin agarose plates
Procedure: as §1, §2, §5

[6] = system: Sheep red cells; experiment: inhibition zone assay, lethal concentration on sheep red cells; format: cell-based; settings: thin agarose plates
Procedure: as §1, §2, §5

[7] = molecular target: immune inhibitor A (In A) (Bacillus thuringiensis subsp. alesti, UniProt P23382); format: in vitro ADME; settings: 20 min at 36° C.; for Zone of inhibition: E. coli D21 plates
Procedure: (§6) FIGS. 1 and 2 graphically illustrate the resistance of the compounds of this invention to enzymatic hydrolysis by trypsin or immune inhibitor A (In A). The experiments were conducted as follows:
(§7) The original solutions of the enzymes contained 5 mg/ml in the case of trypsin and 0.1 mg/ml in the case of InA. These two samples were diluted as follows: A 10^-1, B 10^-2, C 10^-3 and D 10^-4. From each dilution, 2 ul were mixed with 2 ul of two peptides (D-CA and L-CA, both containing 1.3 ug/ul=162 pmol/ul). Control mixtures were made with 2 ul water and 2 ul peptide. All samples were incubated for 20 min at 36° C. Before and after the incubation, all samples were kept on ice. After the incubation 3 ul were placed in wells on plates seeded with E. coli D21 in order the determine the amount of antibiotic that was left. The diameter of the inhibition zone was recorded and compared with a previously prepared a standard curve. Results are as given in the table and illustrated in the figures.

[8] = system: immune inhibitor A (In A); format: in vitro ADME; settings: InA series, Control (no Enzyme), 20 min at 36° C.
Procedure: as §6, §7

[9] = system: trypsin; experiment: proteolytic resistance to trypsin, residual antibiotic by inhibition zone on E. coli D21; format: in vitro ADME; settings: 20 min at 36° C.
Procedure: as §6, §7

[10] = Trypsin series, Control (no enzyme)

immune inhibitor A (In A) (Bacillus thuringiensis subsp. alesti, UniProt P23382), sequence (P23382 41-687): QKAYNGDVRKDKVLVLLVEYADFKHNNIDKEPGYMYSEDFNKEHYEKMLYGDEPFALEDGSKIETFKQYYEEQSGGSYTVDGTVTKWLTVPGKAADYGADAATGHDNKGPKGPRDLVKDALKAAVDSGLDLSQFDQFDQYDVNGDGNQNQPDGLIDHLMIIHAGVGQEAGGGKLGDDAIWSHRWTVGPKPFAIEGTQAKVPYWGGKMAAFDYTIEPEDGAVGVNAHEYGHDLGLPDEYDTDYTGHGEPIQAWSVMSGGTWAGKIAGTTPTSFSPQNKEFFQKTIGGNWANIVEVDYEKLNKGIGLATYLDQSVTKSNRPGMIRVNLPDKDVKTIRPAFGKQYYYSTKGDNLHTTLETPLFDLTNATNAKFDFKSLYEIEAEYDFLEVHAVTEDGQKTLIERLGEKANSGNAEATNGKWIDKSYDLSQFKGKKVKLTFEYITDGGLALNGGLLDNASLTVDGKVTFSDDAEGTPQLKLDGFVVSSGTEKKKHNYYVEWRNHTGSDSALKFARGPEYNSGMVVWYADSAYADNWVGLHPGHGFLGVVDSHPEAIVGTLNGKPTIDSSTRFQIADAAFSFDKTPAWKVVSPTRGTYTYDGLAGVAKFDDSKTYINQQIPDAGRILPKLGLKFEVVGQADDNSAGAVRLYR

## KWKLFKKIEKVGQNIRDGIIKAGPAVAVVGQATQIAK-NH2 [Compound 1, Cecropin A]
[1]
  Lethal Concentrations D21: 0.2 µM
[2]
  Lethal Concentrations OT97: 1 µM
[3]; B. subtilis Bs11, plates prepared with medium E
  Lethal Concentrations Bs11 +ME: 60 µM
[3]; B. subtilis Bs11, thin agarose plates
  Lethal Concentrations Bs11: 3 µM
[4]
  Lethal Concentrations Staph: > 300 µM
[5]
  Lethal Concentrations Strep: 5 µM
[6]
  Lethal Concentrations SRC: > 200 µM
[7]; InA dilution A (10^-1)
  Amount of peptide left: 0 pmol
  Conc.: 0 pmol/µL
  Percent remaining: 0%
[7]; InA dilution A (10^-1 of 0.1 mg/ml)
  Zone of inhibition: None
[7]; InA dilution B (10^-2)
  Amount of peptide left: 316 pmol
  Conc.: 105 pmol/µL
  Percent remaining: 65%
  Zone of inhibition: 1.42 cm
[7]; InA dilution C (10^-3)
  Amount of peptide left: 442 pmol
  Conc.: 147 pmol/µL
  Percent remaining: 91%
  Zone of inhibition: 1.48 cm
[7]; InA dilution D (10^-4)
  Amount of peptide left: 469 pmol
  Conc.: 156 pmol/µL
  Percent remaining: 96%
  Zone of inhibition: 1.49 cm
[8]
  Amount of peptide left: 469 pmol
  Conc.: 156 pmol/µL
  Percent remaining: 96%
[8]; peptide with water
  Zone of inhibition: 1.49 cm
[9]; Trypsin dilution A (10^-1)
  Amount of peptide left: 0 pmol
  Conc.: 0 pmol/µL
  Percent remaining: 0%
[9]; Trypsin dilution A (10^-1 of 5 mg/ml), E. coli D21 plates
  Zone of inhibition: None
[9]; Trypsin dilution B (10^-2)
  Amount of peptide left: 0 pmol
  Conc.: 0 pmol/µL
  Percent remaining: 0%
[9]; Trypsin dilution B (10^-2), E. coli D21 plates
  Zone of inhibition: None
[9]; Trypsin dilution C (10^-3)
  Amount of peptide left: 34 pmol
  Conc.: 11 pmol/µL
  Percent remaining: 6.8%
[9]; Trypsin dilution C (10^-3), E. coli D21 plates
  Zone of inhibition: 0.93 cm
[9]; Trypsin dilution D (10^-4)
  Amount of peptide left: 131 pmol
  Conc.: 44 pmol/µL
  Percent remaining: 27%
[9]; Trypsin dilution D (10^-4), E. coli D21 plates
  Zone of inhibition: 1.25 cm
[9]; [10]
  Amount of peptide left: 373 pmol
  Conc.: 124 pmol/µL
  Percent remaining: 77%
[9]; Trypsin series, Control (no enzyme), peptide with water
  Zone of inhibition: 1.45 cm
